Data from PMC10714399, “Open Source Antibiotics: Simple Diarylimidazoles Are Potent against Methicillin-Resistant Staphylococcus aureus” (ACS Infectious Diseases, 2023).
Converted amounts (≈) assume the structure as drawn. “And” between values parts separate entries of the source, which are not always exact repeats. Equal values may be shown once. Read-outs that look alike come from different tables or passages of the source.

Experiments:
Aqueous solubility = format: physicochemical; settings: thermodynamic from solid
Description: To guide our initial SAR exploration work, we obtained liver microsomal intrinsic clearance data for 5 of the 18 compounds assayed by CO-ADD (Supporting Information - CDCO Report and Supporting Information - Biology). We then acquired intrinsic clearance (CLint), plasma protein binding (PPB), and solubility data on further compounds throughout the SAR campaign (Supporting Information - Biology, Tables S3 and S4). […] The more polar compounds (lower LogD) had reduced PPB and were more metabolically stable.
(§1) Table S4. ADME and Pharmacokinetics: compounds only appearing in the Supplementary […]
(§2) MRSA Aqueous HLM CLint Rat Hep CLint
(§3) Cmpd MIC Solubility Human PPB (%) (µL/min/mg (µL/min/10x6 LogD7.4
(§4) (µg/mL) (µM) protein) cells)
(§5) ADME and toxicity for compounds were measured according to procedures outlined in the manuscript submitted in parallel to this one;2 other procedures were used for those compounds analysed by Monash University (in vitro ADME) or UCL (toxicity), both described in the main

[1] = Human liver microsome intrinsic clearance; format: in vitro ADME
Description: (§6) To guide our initial SAR exploration work, we obtained liver microsomal intrinsic clearance data for 5 of the 18 compounds assayed by CO-ADD (Supporting Information - CDCO Report and Supporting Information - Biology). We then acquired intrinsic clearance (CLint), plasma protein binding (PPB), and solubility data on further compounds throughout the SAR campaign (Supporting Information - Biology, Tables S3 and S4).
as §1, §2, §3, §4, §5

[2] = tested on: Staphylococcus aureus NCTC 13373 (mecA-positive; methicillin-resistant); assay: In vitro antibacterial activity, MIC (UCL School of Pharmacy assay), MRSA; format: cell-based; settings: for MIC: Staphylococcus aureus
Outline: (§7)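 Growth inhibition was read as MIC across a two-fold range of 32 down to 0.03 μg/mL in isosensitest broth. Bacteria from overnight plates were set to A600 0.1 in PBS, about 1 × 10^8 CFU/mL, and diluted 1:100 before inoculation.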

[3] = Human plasma protein binding (PPB); format: in vitro ADME; settings: human, plasma
Description: as §6, §1, §2, §3, §4, §5

[4] = Rat hepatocyte intrinsic clearance; format: in vitro ADME
Description: as §6, §1, §2, §3, §4, §5

[5] = tested on: S. aureus ATCC 25923 (methicillin-susceptible); assay: In vitro antibacterial activity, MIC (UCL), MSSA; format: cell-based, Staphylococcus aureus; settings: Staphylococcus aureus
Outline: as §7

[6] = tested on: MRC-5SV2 (human lung fibroblast cell line); assay: Toxicity against MRC-5SV2; format: cell-based
Protocol: as §5

[7] = tested on: PMM (primary mouse macrophages); assay: Toxicity against PMM; format: cell-based
Protocol: as §5

[8] = tested on: Enterococcus faecalis ATCC 51299 (vanA-positive; vancomycin-resistant); assay: In vitro antibacterial activity, MIC (UCL), VRE; format: cell-based; settings: for MIC: read-out: VRE MIC
Protocol: Staphylococcus aureus NCTC 13373 (mecA-positive; methicillin-resistant, NCTC 13373) was supplied by the National Collection of Type Cultures (NCTC), Public Health England, United Kingdom. Other organisms, S. aureus ATCC 25923 (methicillin-susceptible) and Enterococcus faecalis ATCC 51299 (vanA-positive; vancomycin-resistant), were obtained from the American Type Culture Collection (ATCC) via LGC Standards, UK. A suspension of each organism was prepared from an overnight plate culture (tryptone soya agar) in phosphate-buffered saline (PBS) and adjusted to an absorbance reading at 600 nm of 0.1, which is approximately equivalent to 1 × 10^8 colony-forming units (CFU) per mL. The cultures were further diluted 1:100 in isosensitest broth (Oxoid, United Kingdom) before 100 μL was used to inoculate each well of a 96-well plate that contained diluted samples of the OSA series. Compounds were evaluated over a 2-fold dilution range from 32 to 0.03 μg/mL. Stocks of the samples were prepared in 100% DMSO at […] before being diluted in isosenstitest broth. The highest concentration of DMSO present was 2%, which has been previously shown not to inhibit the growth of the microorganisms (data not shown). […] Vancomycin was used as a quality control compound.

[9] = NEU, read-out: Aqueous Solubility (uM) (NEU)
[10] = UCL assay, read-out: MRSA MIC (ug/mL) (UCL)
[11] = UCL assay, read-out: MSSA MIC (ug/mL) (UCL)
[12] = human, liver microsomes, read-out: HLM CLint
[13] = read-out: Human PPB (converted)
[14] = rat, hepatocytes, Figure 4, read-out: Rat Hep CLint

Row | SMILES | solubility (Aqueous solubility; read-out: Aqueous Solubility) | MIC ([2]; 16 h, read-out: MRSA MIC) | MIC ([2]; read-out: MRSA MIC) | fraction unbound [3, 13] | MIC [8] | MRSA MIC [2] | VRE MIC [8] | MRC5 TC50 [6] | PMM TC50 [7] | further results
1 | COc1ccnc(-c2nc3ccccn3c2N(C)c2ccc(F)cc2)c1 [OSA_001007] | – | – | – | – | – | – | – | – | – | solubility (Aqueous solubility; NEU, read-out: Aqueous Solubility (NEU)): 26 µM (≈ 9.06 µg/mL); microsomal CLint ([1]; human liver microsomes, NEU, read-out: HLM CLint (NEU)): 214 µL/min/mg; MIC ([2]; UCL, read-out: MRSA MIC (UCL)): 8 µg/mL (≈ 23 µM); fraction unbound ([3]; human plasma, NEU, read-out: Human PPB (NEU) (converted)): 0.025; hepatocyte CLint ([4]; rat hepatocytes, NEU, read-out: Rat Hep CLint (NEU)): > 300 µL/min/1e6 cells; MIC ([5]; read-out: MSSA MIC (UCL)): 8 µg/mL (≈ 23 µM)
2 | CC(=O)N(c1ccc(F)cc1)c1c(-c2ccccn2)nc2ccccn12 [OSA_001021] | – | – | – | – | – | – | – | – | – | solubility (Aqueous solubility; [9]): 10 µM (≈ 3.46 µg/mL); HLM CLint (uL/min/mg protein) (NEU) ([1]; human liver microsomes, NEU): 19.8 uL/min/mg protein; MRC5 TC50 ([6]; MRC5 cells): 64 µM; MIC [2, 10]: > 32 µg/mL; fraction unbound ([3]; human plasma, NEU, read-out: Human PPB (%) (NEU) (converted)): 0.17; PMM TC50 ([7]; PMM): 64 µM; Rat Hep CLint (uL/min/10x6 cells) (NEU) ([4]; rat hepatocytes, NEU): 81.2 uL/min/10x6 cells; MIC [5, 11]: > 32 µg/mL
3 | COc1ccc(-c2nc3ccccn3c2Nc2ccc(F)cc2)nc1 [OSA_001022] | – | – | – | – | – | – | – | – | – | solubility (Aqueous solubility; [9]): 3 µM (≈ 1 µg/mL); MIC [2, 10]: 8 µg/mL (≈ 23.9 µM); MIC [5, 11]: 8 µg/mL (≈ 23.9 µM)
4 | CS(=O)(=O)c1ccc(-c2c(-c3ccccn3)nc3n2CCC3)cc1 [compound 837] | 317 µM (≈ 108 µg/mL) | > 32 µg/mL | > 32 µg/mL | 0.4 | > 32 µg/mL | – | – | – | – | microsomal CLint [1, 12]: < 3 µL/min/mg; activity against MRSA, in words [2]: not tolerated; hepatocyte CLint [4, 14]: < 1 µL/min/1e6 cells
5 | C[S+]([O-])c1ccc(-c2c(-c3ccccn3)nc3n2CCC3)cc1 (stereo not drawn) [compound 838] | 756 µM (≈ 245 µg/mL) | > 32 µg/mL | > 32 µg/mL | 0.45 | > 32 µg/mL | – | – | – | – | microsomal CLint [1, 12]: < 3 µL/min/mg; hepatocyte CLint [4, 14]: < 1 µL/min/1e6 cells
6 | COc1ccn2c(Nc3ccccc3F)c(-c3cnn(C)c3)nc2c1 [compound 855] | – | – | – | – | – | > 32 µg/mL and 32 µg/mL | > 32 µg/mL | 21.6 µg/mL | 21.6 µg/mL | –
7 | COc1ccn2cc(-c3ccccn3)nc2c1 [compound 856] | – | – | – | – | – | > 32 µg/mL and 32 µg/mL | > 32 µg/mL | 11.6 µg/mL | 14.4 µg/mL | –

Second part, led by results:

Row | solubility (Aqueous solubility; read-out: Aqueous Solubility) | MIC ([2]; 16 h, read-out: MRSA MIC) | MIC ([2]; read-out: MRSA MIC) | fraction unbound [3, 13] | MIC [8] | MRSA MIC [2] | VRE MIC [8] | SMILES | MRC5 TC50 [6] | PMM TC50 [7] | further results
8 | – | – | – | – | – | 16 µg/mL | > 32 µg/mL | COc1ccn2c(-c3ccc(F)cc3)c(-c3ccccn3)nc2c1 [compound 858] | 1.2 µg/mL | 2.6 µg/mL | –
9 | – | – | – | – | – | 8 µg/mL | 32 µg/mL | COc1ccn2c(-c3ccccc3)c(-c3ccccn3)nc2c1 [compound 860] | 1.2 µg/mL | 2.4 µg/mL | –
10 | – | – | > 32 µg/mL | – | > 32 µg/mL | 32 µg/mL | – | Fc1cccc(-c2c(-c3ccccn3)nc3n2CCC3)c1 [compound 872] | 2.0 µg/mL | 15.3 µg/mL | –
11 | – | – | 4 µg/mL (≈ 13.5 µM) | – | 16 µg/mL (≈ 54.1 µM) | – | – | Clc1ccc(-c2c(-c3ccccn3)nc3n2CCC3)cc1 [compound 875] | 1.6 µg/mL | 2.4 µg/mL | –
12 | 782 µM (≈ 260 µg/mL) | > 32 µg/mL | > 32 µg/mL | 0.55 | > 32 µg/mL | – | – | CN(C)C(=O)c1ccc(-c2c(-c3ccccn3)nc3n2CCC3)cc1 [compound 974] | – | – | microsomal CLint [1, 12]: < 3 µL/min/mg; activity against MRSA, in words [2]: not tolerated; hepatocyte CLint [4, 14]: < 1 µL/min/1e6 cells
13 | 38 µM (≈ 10.9 µg/mL) | 4 µg/mL (≈ 14 µM) | 4 µg/mL (≈ 14 µM) | 0.29 | 16 µg/mL (≈ 55.9 µM) | – | – | N#Cc1ccc(-c2c(-c3ccccn3)nc3n2CCC3)cc1 [compound 975] | 7.4 µg/mL | 18.3 µg/mL | –
